Source: patent US20220175798A1, “COMPOSITIONS COMPRISING OXYGENATED CHOLESTEROL SULFATE AND AT LEAST ONE OF POLYALKYLENE GLYCOL, CARBOXYMETHYL CELLULOSE AND POLYOXYLGLYCERIDE” (Durect Corporation, priority 2016, published 2022)

Columns and labels:
[1] = Solubility of 25HC3S in aqueous solutions, organic solvents or oils; format: physicochemical; settings: various aqueous solutions and FDA approved organic solvents or oils
Description: (§1) The HPLC technique involved reverse phase HPLC for measuring the concentration of 25HC3 S in the solubility samples.

[2] = tested on: APAP-induced liver failure; assay: Acetaminophen (APAP)-induced model of acute liver failure; format: in vivo, C57BL/6J mice; settings: 25 mg/kg oral gavage 1 hr (and 24 hr) post APAP 300 mg/kg; vs vehicle
Procedure: The subjects for the study were 52 C57BL/6J male mice (12 weeks of age; 27.4-40 g). […] All animals were in healthy condition and admitted to the study.
The Vehicle was a solution of 0.5% (w/v) CMC and 0.05% (v/v) Tween-80 in water. Powdered 25HC3 S was constituted into the vehicle solution to result in a drug concentration of 3 mg/mL. The suspensions were homogenized at 20,000 rotations per minute (rpm) for approximately 5 minutes after being combined, with 10 second breaks every 30-40 seconds and swirled before dosing to maintain homogeneity. The formulated test article was prepared weekly and kept at room temperature.
Two groups of mice (N=14/group) were challenged with 300 mg/kg APAP by oral gavage. The two groups were treated with one dose of vehicle or 25HC3 S (25 mg/kg) by oral gavage at a dose volume of 8.33 mL/kg one hour post-APAP challenge. Half of the mice in each group (N=6-7/group) were given a second dose of vehicle or 25HC3 S (25 mg/kg) at 24 hour post-APAP delivery in addition to the first dose at 1 hr. Cohort A mice (single dose) were sacrificed 24 hrs post APAP-challenge and Cohort B mice (two doses) were sacrificed at 48 hours post APAP-challenge. A parallel set of untreated age-matched mice (no APAP and vehicle administered by oral gavage) were also sacrificed at both time points to compare baseline measurements (N=6/time point; 12 in total). […]

[3] = Homogeneity and content uniformity of 25HC3S suspension by HPLC; format: physicochemical
Procedure: as §1
Weigh 80 mg of 25HC3S (Lot #B, Passed through 20 mesh screen and Jet-milled, 3rd pass) into a 10 mL vial. Add to the vial, 8 mL of Vehicle PEG 3350 (with 0.15% L-Methionine and 0.9% NaCl). […] A total of 9 samples were dispensed using 1 mL BD syringes attached to 20G1″ or 25G⅝″ Terumo UTW needles for homogeneity analysis by HPLC (Study #14) and stability study (Study #17).
Weigh 50 and 80 mg of 25HC3S into 2 and 10 mL vials, respectively. Add to the vial, 2 mL and 8 mL of Vehicle PEG 3350 with L-Methionine. […] The vial was inverted 10 times prior to dispensing 0.2 or 0.9 mL into volumetric flasks for methanol dilution for HPLC analysis (total 8 and 7 samples, respectively for HPLC analysis for potency and stability (Study #15).
Weighed approximately 125 mg each of 25HC3S (Lot #C, jet milled and passed through a 20 mesh screen) into a 10 mL vial. Added to vial, 5 mL of Vehicle PEG 3350 without L-Methionine. The vial was placed horizontally in a flat bed shaker, shaken at 100 rpm for up 45 minutes (Mixing Method 4). There were some small wet lumps stuck to the wall and bottom of the glass vial.
Weigh 87 mg of 25HC3S (Lot #C, Jet milled and then pass 20 mesh screen) into a 5-mL vial. Add to the vial 3 mL Vehicle PEG 3350 (without L-methionine and with 0.75% NaCl). […] Weigh another approximately and accurately 90 mg each of 25HC3S (Lot #D and Lot #B, micronized, one pass) into 3 separate 10 mL vials with 3 mL of Vehicle PEG 3350. The vials were placed in a flat bed shaker at 200 rpm for 45 minutes (Mixing Method 4). […] A second set of samples was prepared likewise from the same 3 vials except using 1 mL BD syringe attached to a 27G½″ needle. The homogeneity was determined (Study #19).

[4] = Syringeability study of 25HC3S suspensions; format: physicochemical
Procedure: Two lots of 25HC3S sodium salt (Lot #A and Lot #B) were used. Lot #B was delumped through a 20 mesh screen. The drug substance was either used directly or further jet-milled, prior to the preparation of suspensions for the studies. A third lot of 25HC3 S sodium salt (Lot #C) was jet-milled first and then used directly or further passed through a 20 mesh screen prior to the studies. More than 10 vehicles were screened. Four mixing methods were evaluated: manual shaking (Mixing Method 1), manual shaking followed by sonication (Mixing Method 2) and homogenization with a sonic probe (Mixing Method 3) as well as mechanical shaking horizontally in a flat bed shaker (Mixing Method 4). Studies #1 to 13 combined vehicle screening, mixing methods and syringeability evaluation. The effect of drug concentrations on the syringeability was evaluated (Studies #10 and 11). Syringe: 1 mL BD syringe (luer lok tip), reference no: 309628 Needles for syringeability study: listed below Weigh approximately 10 to 100 mg each of 25HC3S into 2 mL vials. Add to each vial, 1 mL of vehicle. A total of 3 mixing methods were used to prepare the suspensions. Mixing Method 1: Each vial was manually shaken for 15 to 45 times. […] The effect of 25HC3S with or without jet milling and the effects of mixing methods as well as drug concentrations on the syringeability were evaluated. […]

[5] = Stress study of suspension formulation with hydrogen peroxide; format: physicochemical; settings: stress study of 25HC3S suspension formulation with hydrogen peroxide
Description: L-Methionine was initially added as an antioxidant. […] Therefore, L-Methionine was removed from the preferred suspension formulation. 25HC3S in Vehicle PEG 3350 (without L-Methionine) was used for further syringeability study (Studies #12 and 13).

Compound: C[C@H](CCCC(C)(C)O)[C@H]1CC[C@H]2[C@@H]3CC=C4C[C@@H](OS(=O)(=O)[O-])CC[C@]4(C)[C@H]3CC[C@]12C.[Na+] [Formulation 25HC3S, 5-cholesten-3, 25-diol, 3-sulfate]
- solubility [1]: low solubility
- serum chemistry parameters (ALT, AST, ALK, LDH, BUN, glucose) [2]: no effect
- homogeneity ([3]; 10 mg/mL in Vehicle PEG 3350 (with 0.15% L-Methionine), n=7, 0.9 mL each, Study #15): 100.5-103.1 % LS
- homogeneity ([3]; 10 mg/mL suspension in Vehicle PEG 3350 (0.15% L-Methionine, 0.9% NaCl), Lot #B jet-milled 3rd pass, n=9, Study #14): 94.3-98.1 % LS
- homogeneity ([3]; 25 mg/mL in Vehicle PEG 3350 (with 0.15% L-Methionine), n=8, 0.2 mL each, Study #15): 96.2-109.4 % LS
- homogeneity (and content uniformity) ([3]; final improved formulation 25 mg/mL (Study #19)): 89.3-105.9 % label strength
- syringeability ([4]; 25 mg/mL in Vehicle PEG 3350 (without L-Methionine), flat bed shaker 200 rpm up to 45 minutes (Study #13)): good syringeability
- syringeability ([4]; final suspension formulation: 25 mg/mL in 3% PEG 3350, 0.3% Tween 80, 0.75% NaCl, 10 mM phosphate buffer pH 7.4): good syringeability
- oxidative degradation [5]: oxidative degradation did not occur
